One test concerns HCT-116. Nature of the test: Antiproliferative activity against human HCT-116 cells expressing MTAP-/- assessed as inhibition of cell proliferation incubated for 4 days by fluorescence based assay. The format is functional. The conditions noted are these: HCT-116, 96 h.
Test [1] addresses S-adenosylmethionine synthase isoform type-2 (Homo sapiens, UniProt P31153). As to the kind of experiment: Inhibition of recombinant MAT2A (unknown origin) expressed in baculovirus infected Sf9 insect cells using L-methionine as substrate preincubated for 15 mins followed by substrate addition measured after 60 mins by Kinase-Glo Luminescent assay. (In Kinase-Glo more light means more ATP remaining.)

Sequence of S-adenosylmethionine synthase isoform type-2 (P31153 whole entry, canonical isoform): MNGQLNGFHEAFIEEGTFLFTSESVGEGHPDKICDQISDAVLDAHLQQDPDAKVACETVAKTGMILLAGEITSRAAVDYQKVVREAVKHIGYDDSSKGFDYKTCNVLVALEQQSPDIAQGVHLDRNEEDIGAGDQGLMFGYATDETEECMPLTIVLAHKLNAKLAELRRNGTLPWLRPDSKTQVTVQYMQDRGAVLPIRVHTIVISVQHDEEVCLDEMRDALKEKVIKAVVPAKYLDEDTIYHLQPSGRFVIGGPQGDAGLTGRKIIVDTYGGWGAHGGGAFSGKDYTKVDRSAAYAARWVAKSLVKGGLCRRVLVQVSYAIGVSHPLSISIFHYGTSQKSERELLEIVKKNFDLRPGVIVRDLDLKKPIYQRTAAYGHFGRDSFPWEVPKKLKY

What is called IC50 is the concentration that inhibits the measured activity by half. With `CCOc1ncc2cc(-c3ccc4c(c3)nc3n4CCN(C)C3)c(=O)n(-c3ccc(OC(F)F)cc3)c2n1`, the IC50 worked out at 3110 nM in the test on HCT-116 and 394 nM in test [1].
In the case of `CCOc1ncc2cc(-c3cc4c5c(c3)ncn5CCO4)c(=O)n(-c3ccc(OC(F)F)cc3)c2n1`, the values for the IC50 (in the test on HCT-116; in test [1]) were 447 nM and 72 nM, respectively.
As for `CCOc1ncc2nc(-c3ccc4nn(C)cc4c3)c(=O)n(-c3ccc(OC(F)F)cc3)c2n1`, the results for the IC50 (with HCT-116; in test [1]) were 387 nM and 39 nM, respectively.
For the compound `CCOc1ncc2cc(-c3ccc4nc5n(c4c3)CCN(CC#N)C5)c(=O)n(-c3ccc(OC(F)F)cc3)c2n1`, the results for the IC50 (with HCT-116; in test [1]) were 56 nM and 20 nM, respectively.
The corresponding values for `CN1CCn2c(nc3ccc(-c4cc5cnc(N6CCC6)nc5n(-c5ccc(OC(F)F)cc5)c4=O)cc32)C1` are 6120 nM and 324 nM.
`CCOc1ccc2cc(-c3ccc4nn(C)cc4c3)c(=O)n(-c3ccc(OC(F)F)cc3)c2c1`: the 50% inhibitory concentration (IC50) stood at 355 nM with HCT-116 and 34 nM in test [1].
In the case of `CCOc1ncc2cc(-c3ccc4nc5n(c4c3)CCN(C(C)C)C5)c(=O)n(-c3ccc(OC(F)F)cc3)c2n1`, the IC50 in the test on HCT-116 stood at 53 nM; in test [1], 17 nM.
Regarding `COc1ncc2cc(-c3ccc4nc5n(c4c3)CCN(C)C5)c(=O)n(-c3ccc(OC(F)F)cc3)c2n1`, the IC50 with HCT-116 was found to be 484 nM; in test [1], 64 nM.
Consider `CCOc1ncc2cc(-c3ccc4nc5n(c4c3)CCN(C(C)=O)C5)c(=O)n(-c3ccc(OC(F)F)cc3)c2n1`, for which the IC50 in the test with HCT-116 amounted to 118 nM; in test [1], 52 nM.
The corresponding values for `CCOc1ncc2cc(-c3ccc4ncn5c4c3OCC5)c(=O)n(-c3ccc(OC(F)F)cc3)c2n1` are over 10000 nM and over 1000 nM.
Turning to `CCOc1ncc2cc(-c3ccc4nn5c(c4c3)CN(C)CC5)c(=O)n(-c3ccc(OC(F)F)cc3)c2n1`, the IC50 in the test on HCT-116 is 56 nM; in test [1], 20 nM.
In the same order, the values of `CC(C)Oc1ncc2cc(-c3ccc4nc5n(c4c3)CCN(C)C5)c(=O)n(-c3ccc(OC(F)F)cc3)c2n1` are 84 nM and 27 nM.
With `CCOc1ncc2cc(-c3ccc4nc5n(c4c3)CCN(CCOC)C5)c(=O)n(-c3ccc(OC(F)F)cc3)c2n1`, the concentration for half-maximal inhibition (IC50) in the test with HCT-116 was determined as 50 nM; in test [1] it was 17 nM.
In the same order, the values of `Cn1cc2cc(-n3cc4cnc(NCC(F)(F)F)nc4c(-c4ccc(Cl)cc4)c3=O)ccc2n1` are 145 nM and 32 nM.
In the same order, the values of `CCOc1ccc2cc(-c3ccc4c(c3)C3(CC3)CO4)c(=O)n(-c3ccc(OC(F)F)cc3)c2c1` are 315 nM and 63 nM.
Take `CN1CCn2c(nc3ccc(-c4cc5cnc(OCC(F)F)nc5n(-c5ccc(OC(F)F)cc5)c4=O)cc32)C1`: the results for the IC50 (in the test with HCT-116; in test [1]) were 159 nM and 37 nM, respectively.
As for `CN1CCn2c(nc3ccc(-c4cc5cnc(NCC(F)(F)F)nc5n(-c5ccc(OC(F)F)cc5)c4=O)cc32)C1`, the IC50 stood at 166 nM in the test on HCT-116 and 34 nM in test [1].
Consider `CCOc1ncc2cc(-c3ccc4nc5n(c4c3)CCN(C)C5)c(=O)n(-c3ccc(OC)nc3)c2n1`, for which the IC50 with HCT-116 was 792 nM; in test [1], 132 nM.
For `CCOc1ncc2c(n1)n(-c1ccc(OC(F)F)cc1)c(=O)n2Cc1ccc2nn(C)cc2c1`, the IC50 is over 10000 nM in the test on HCT-116 and over 1000 nM in test [1].
In the same order, the values of `CN1CCn2c(nc3ccc(-c4cc5cnc(N6CCCC6)nc5n(-c5ccc(OC(F)F)cc5)c4=O)cc32)C1` are over 10000 nM and over 1000 nM.
In the same order, the values of `CCOc1ncc2cc(-c3ccc4nc5n(c4c3)CCN(CC3COC3)C5)c(=O)n(-c3ccc(OC(F)F)cc3)c2n1` are 67 nM and 23 nM.
For the compound `CCOc1ncc2cc(-c3ccc4nn5c(c4c3)C(=O)N(C)CC5)c(=O)n(-c3ccc(OC(F)F)cc3)c2n1`, the IC50 came to 80 nM in the test on HCT-116 and 23 nM in test [1].
The corresponding values for `CCOc1ncc2cc(-c3ccc4nc5n(c4c3)CCN(C)C5)c(=O)n(-c3ccc(Cl)cc3)c2n1` are 119 nM and 51 nM.
